Source: patent publication US20260001875A1, “AMINOPYRIMIDINYL DERIVATIVES FOR THE TREATMENT OF PARKINSON'S DISEASE” (UNIVERSITY OF DUNDEE, priority 2022, published 2026)
Like-named read-outs stand apart in the source and are kept apart here.

Legend:
LRRK2 = LRRK2 (Homo sapiens, UniProt Q5S007); experiment: NanoBRET LRRK2 target engagement in HEK293 cells; assay type: binding; set-up: host or cells: HEK293; details: for IC50: read-out: IC50 LRRK2 tracer displacement
Experimental: (§1) For VHL and LRRK2 target engagement experiments in live and permeabilized cells, the HEK293 cells were transfected with VHL-NanoLuc fusion vector (Promega, N275A) or LRRK2-NanoLuc fusion vector (Promega, NV3401) following Promega's protocol and seeded into white 384-well plate (Corning3570) at a density of 6000 cells/well. To measure NanoBRET in permeabilized cells, the cells were treated with 50 μg/mL digitonin (Sigma, D141), 125 nM VHL tracer/125 nM LRRK2 tracer, testing compounds at decreasing concentrations (12 concentrations with 2-fold serial dilution starting from 33 μM), and NanoBRET NanoGlo Substrate (Promega) at concentration recommended by the manufacturer's protocol. In the maximum signal control samples (DMSO control), DMSO was added instead of testing compounds. In the minimum signal control samples (no tracer control), DMSO and tracer dilution buffer were used to replace testing compounds and tracer separately. The filtered luminescence was measured within 10 min following addition of the substrate on a GloMax Discover microplate reader (Promega) or a PHERAstar (BMG LABTECH) plate reader equipped with a 450-nm bandpass filter (donor) and a 600-nm long pass filter (acceptor). To measure NanoBRET in live cells, the cells were treated with 250 nM VHL tracer/500 nM LRRK2 tracer, testing compounds at testing compounds at decreasing concentrations (12 concentrations with 2-fold serial dilution starting from 33 μM) and incubated at 37° C. in an incubator for 2 h. The plates were then cooled down and added with NanoBRET NanoGlo Substrate and Extracellular NanoLuc Inhibitor (Promega, N2160) before performing the same NanoBRET reading as the permeabilized mode on plate readers. NanoBRET ratio of each well was expressed in milliBRET according to the equation: mBRET=[(signal at […]/signal at 450 nM)−(signal at 610 nMno tracer control/signal at 450 nMno tracer control)]×1000. The fractional occupancy was calculated according to the equation: fractional occupancy=(mBRETtesting compound−mBRETno tracer control)/(mBRETDMSO control−mBRETno tracer control).

LRRK2 pSer935 = experiment: LRRK2 Ser935 dephosphorylation (immunoblot) in LRRK2^G2019S MEFs; assay type: cell-based, mouse; details: for EC50: Mus musculus, dose response; for T1/2 GS-pSer935-LRRK2: LRRK2^G2019S MEFs
Experimental: Western blot degradation assays for the LRRK2 protacs were performed with WT and PD-associated LRRK2 [G2019S] mouse embryonic fibroblasts (MEFs). The second-generation PROTACs were tested in parallel with the first generation PROTACs SD75, SD82, and SD100. The compounds were tested at 33 nM or […] concentrations for 4 hours or 24 hours, running two biological replicates per condition and achieving quantifications representative of both replicates. Analysis by quantitative immunoblotting was performed with readouts of the total LRRK2 (antibody recognizes epitope in C-terminus of protein), Rab10 pThr73 (physiological substrate) and LRRK2 pSer935 (biomarker phosphorylation site).
Primary MEFs were generated as described in a previous study (Wiggin et al., Mol. Cell Biol. 2002 April; 22(8):2871-81.). Briefly, the uterine horn was collected from adult female mice at day E12.5 and transferred to a 10 cm tissue culture dish containing cold PBS. Two forceps were used to tear the yolk sacs to isolate each embryo. Forceps were cleaned thoroughly with 70% ethanol between each embryo isolation. The embryos were culled, and a tissue piece was collected in a PCR tube for genotyping. The red tissue of the embryo, which grows to become the heart and liver, was removed. The remainder of the embryo was minced with a scalpel blade and incubated with 7.5 ml trypsin-EDTA solution for 10 minutes in a 37° C. tissue culture CO2 incubator. The dish was removed from the incubator and checked under a light microscope for single cells. 7.5 ml complete media was added to the trypsinised cells, and the cell suspension was transferred to a 15 ml Falcon tube, centrifuged at 1200 rpm for 5 minutes at room temperature. The trypsin was aspirated, the cell pellet was resuspended in 5 ml fresh complete media, and the cell suspension was plated in a 60 mm tissue culture dish and incubated in a 37° C., 5% CO2 tissue culture incubator. The MEFs at this stage were considered as passage 0 and were passaged and expanded for experimental use once the genotype was confirmed by allelic sequencing and immunoblotting. MEFs were cultured in Dulbecco's modified Eagle medium (DMEM) containing 10% (v/v) fetal bovine serum (FBS), 2 mM L-glutamine, 100 U/ml penicillin, and 100 μg/ml streptomycin supplemented with 1× non-essential amino acids and 1 mM sodium pyruvate.
Culturing and passaging of adherent cell lines were carried out using aseptic technique in CL1 or CL2 (for PBMC isolation) biological safety cabinets. All cells were incubated in a 37° C. incubator with 5% CO2. Cell lines were regularly tested for mycoplasma contamination. For western blot assay, the cells were seeded in 6-well plates. After treating with testing compounds at indicated concentrations and time period, the media was removed and the cells were washed with PBS and lysed in 100 μl ice-cold complete lysis buffer containing 50 mM Tris-HCl pH 7.4, 1 mM EGTA, 10 mM 2-glycerophosphate, 50 mM sodium fluoride, 5 mM sodium pyrophosphate, 270 mM sucrose, supplemented with 1 μg/ml microcystin-LR, 1 mM sodium orthovanadate, complete EDTA-free protease inhibitor cocktail (Roche) and 1% (v/v) Triton X-100. The cells were immediately placed on ice and were scraped and collected into 1.5 ml Eppendorf tubes. Cell lysates were incubated on ice for 10 minutes prior to centrifugation at 15,000 g at 4° C. for 15 minutes. The cell pellet was discarded, and supernatant was collected for analysis by quantitative immunoblotting. For long term storage, the supernatant was flash frozen and stored at −80° C. Protein concentrations of cell lysates were determined using the Bradford assay.
Cell lysates containing a quarter of a volume of 4× NuPAGE LDS sample buffer (NP0007) supplemented with 5% β-mercaptoethanol, were heated at 95° C. for 5 minutes. […]

Rab10 pThr73 = experiment: Rab10 Thr73 dephosphorylation (immunoblot) in LRRK2^G2019S MEFs; assay type: cell-based, mouse; details: for inhibition at 1 µM: read-out: pRab10 inhibited in LRRK2^G2019S MEFs; for EC50: dose response, read-out: G2019S MEFs-pRab10-dephosphorylation EC50
VHL = VHL (Homo sapiens, UniProt P40337); experiment: NanoBRET VHL target engagement in HEK293 cells; assay type: binding; set-up: host or cells: HEK293; details: for IC50: read-out: IC50 VHL tracer displacement
Sequence of VHL (P40337 whole entry): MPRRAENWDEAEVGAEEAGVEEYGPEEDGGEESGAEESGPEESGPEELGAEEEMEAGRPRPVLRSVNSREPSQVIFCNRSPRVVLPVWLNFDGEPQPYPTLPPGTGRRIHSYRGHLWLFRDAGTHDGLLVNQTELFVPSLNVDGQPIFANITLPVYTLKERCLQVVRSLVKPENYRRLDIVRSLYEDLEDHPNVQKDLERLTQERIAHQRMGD
Experimental: as §1

[1] = Mus musculus, 1 μM/4 h treatment
[2] = time course at 300 nM, LRRK2^G2019S MEFs

Sequence of LRRK2 (Q5S007 whole entry, the tested form may be a part): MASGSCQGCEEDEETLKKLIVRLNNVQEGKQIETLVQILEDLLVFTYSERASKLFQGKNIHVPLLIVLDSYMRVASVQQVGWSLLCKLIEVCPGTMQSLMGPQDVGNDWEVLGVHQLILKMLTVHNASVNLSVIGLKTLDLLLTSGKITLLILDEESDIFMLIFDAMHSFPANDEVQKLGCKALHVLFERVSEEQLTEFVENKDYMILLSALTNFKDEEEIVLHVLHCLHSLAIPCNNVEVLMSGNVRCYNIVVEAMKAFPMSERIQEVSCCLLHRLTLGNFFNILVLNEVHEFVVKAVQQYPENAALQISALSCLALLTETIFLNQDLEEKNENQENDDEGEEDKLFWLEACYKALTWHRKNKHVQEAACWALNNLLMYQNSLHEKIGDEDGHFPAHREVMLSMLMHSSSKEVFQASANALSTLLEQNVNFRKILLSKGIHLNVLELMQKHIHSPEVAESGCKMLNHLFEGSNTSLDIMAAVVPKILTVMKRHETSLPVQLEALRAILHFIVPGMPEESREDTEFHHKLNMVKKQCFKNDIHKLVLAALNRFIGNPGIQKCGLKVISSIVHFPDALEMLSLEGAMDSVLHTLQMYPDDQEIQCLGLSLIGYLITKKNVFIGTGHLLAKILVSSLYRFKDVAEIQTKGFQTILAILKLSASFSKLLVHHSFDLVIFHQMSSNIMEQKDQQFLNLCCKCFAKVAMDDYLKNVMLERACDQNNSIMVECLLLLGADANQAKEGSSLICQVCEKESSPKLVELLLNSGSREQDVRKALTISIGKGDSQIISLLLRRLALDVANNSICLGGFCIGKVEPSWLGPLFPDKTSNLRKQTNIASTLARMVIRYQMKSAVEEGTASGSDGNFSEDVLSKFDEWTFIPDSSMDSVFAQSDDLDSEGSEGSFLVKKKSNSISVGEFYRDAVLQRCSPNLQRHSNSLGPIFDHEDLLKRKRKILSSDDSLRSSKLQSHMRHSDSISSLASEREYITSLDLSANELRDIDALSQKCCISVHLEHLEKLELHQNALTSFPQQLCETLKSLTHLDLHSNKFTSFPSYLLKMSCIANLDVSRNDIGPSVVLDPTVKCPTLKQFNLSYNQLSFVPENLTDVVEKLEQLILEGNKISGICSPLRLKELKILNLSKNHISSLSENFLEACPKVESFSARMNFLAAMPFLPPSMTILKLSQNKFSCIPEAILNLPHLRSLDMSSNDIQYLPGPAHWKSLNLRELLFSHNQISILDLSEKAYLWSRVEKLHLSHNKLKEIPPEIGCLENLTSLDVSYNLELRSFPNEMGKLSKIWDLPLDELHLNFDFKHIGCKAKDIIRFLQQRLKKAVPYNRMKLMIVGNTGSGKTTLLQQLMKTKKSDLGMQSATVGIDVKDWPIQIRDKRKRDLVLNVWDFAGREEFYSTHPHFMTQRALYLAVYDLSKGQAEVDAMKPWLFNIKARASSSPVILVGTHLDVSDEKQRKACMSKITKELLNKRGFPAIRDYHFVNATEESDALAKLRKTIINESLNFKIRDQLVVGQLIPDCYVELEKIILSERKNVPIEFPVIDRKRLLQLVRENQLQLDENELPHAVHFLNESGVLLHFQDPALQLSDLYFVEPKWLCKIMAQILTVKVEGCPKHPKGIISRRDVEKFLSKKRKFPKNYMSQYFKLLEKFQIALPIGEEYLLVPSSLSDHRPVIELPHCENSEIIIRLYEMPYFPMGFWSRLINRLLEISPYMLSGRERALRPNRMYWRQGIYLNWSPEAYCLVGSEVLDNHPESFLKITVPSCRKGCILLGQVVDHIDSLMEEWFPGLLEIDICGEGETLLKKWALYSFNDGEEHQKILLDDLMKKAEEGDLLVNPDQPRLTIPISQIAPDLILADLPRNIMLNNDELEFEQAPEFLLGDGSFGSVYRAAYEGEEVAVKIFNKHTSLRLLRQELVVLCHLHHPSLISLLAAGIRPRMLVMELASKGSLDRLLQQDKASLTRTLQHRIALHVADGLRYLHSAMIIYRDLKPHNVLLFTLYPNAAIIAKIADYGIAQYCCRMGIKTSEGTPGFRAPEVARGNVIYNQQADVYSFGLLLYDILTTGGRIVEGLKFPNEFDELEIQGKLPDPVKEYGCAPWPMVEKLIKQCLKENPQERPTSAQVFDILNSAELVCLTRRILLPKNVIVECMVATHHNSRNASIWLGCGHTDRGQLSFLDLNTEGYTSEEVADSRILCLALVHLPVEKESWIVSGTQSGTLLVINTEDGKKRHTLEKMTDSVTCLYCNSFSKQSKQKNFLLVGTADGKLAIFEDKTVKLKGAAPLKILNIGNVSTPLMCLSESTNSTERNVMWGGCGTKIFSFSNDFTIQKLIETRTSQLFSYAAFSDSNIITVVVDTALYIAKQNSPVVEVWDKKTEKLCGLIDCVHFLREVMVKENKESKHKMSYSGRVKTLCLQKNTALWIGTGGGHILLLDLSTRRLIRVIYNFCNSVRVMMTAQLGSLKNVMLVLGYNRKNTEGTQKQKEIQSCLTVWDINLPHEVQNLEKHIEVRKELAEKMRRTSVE

Row | Structure (SMILES) | IC50 (LRRK2; live HEK293 cells) [nM] | IC50 (LRRK2; permeabilized HEK293 cells) [nM] | IC50 ratio IC50, per/IC50, live (LRRK2 engagement) (LRRK2; permeabilized vs live mode) | EC50 (LRRK2 pSer935; 24 h treatment) [nM] | T1/2 GS-pSer935-LRRK2 (LRRK2 pSer935; time course at 1000 nM) [h] | inhibition at 1 µM (Rab10 pThr73; [1]) [%] | Dmax at 1 µM (Rab10 pThr73; Mus musculus, time course at 1000 nM, LRRK2^G2019S MEFs) [%] | EC50 (Rab10 pThr73; 24 h treatment) [nM] | T1/2 of Rab10 dephosphorylation (G2019S) (Rab10 pThr73; time course at 1000 nM, LRRK2^G2019S MEFs) [min] | IC50 (VHL; live HEK293 cells) [nM] | IC50 (VHL; permeabilized HEK293 cells) [nM] | IC50 ratio IC50, per/IC50, live (VHL engagement) (VHL; permeabilized vs live mode) | EC50 (LRRK2 pSer935; 4 h treatment) [nM] | T1/2 GS-pSer935-LRRK2 (LRRK2 pSer935; time course at 300 nM) [h] | inhibition at 1 µM (Rab10 pThr73; Mus musculus, 1 μM/24 h treatment) [%] | EC50 (Rab10 pThr73; Mus musculus, 4 h treatment) [nM] | Dmax at 0.3 µM (Rab10 pThr73; Mus musculus, time course at 300 nM, LRRK2^G2019S MEFs) [%] | T1/2 of Rab10 dephosphorylation (G2019S) (Rab10 pThr73; [2]) [min] | LRRK2 tracer displacement (in words) (LRRK2; permeabilized HEK293 cells) | VHL tracer displacement (in words) (VHL; permeabilized HEK293 cells)
1 | CNc1nc(Nc2ccc(C(=O)N3CCN(CCOCCOCCSC(C)(C)[C@H](NC(=O)C4(F)CC4)C(=O)N4C[C@H](O)C[C@H]4C(=O)NCc4ccc(-c5scnc5C)cc4)CC3)cc2OC)ncc1Cl [SD75, (2S,4R)-1-((R)-3-((2-(2-(2-(4-(4-((5-chloro-4-(methylamino)pyrimidin-2-yl)amino)-3-methoxybenzoyl)piperazin-1-yl)ethoxy)ethoxy)ethyl)thio)-2-(1-fluorocyclopropane-1-carboxamido)-3-methylbutanoyl)-4-hydroxy-N-(4-(4-methylthiazol-5-yl)benzyl)pyrrolidine-2-carboxamide] | 1800 | 780 | 0.43 | 279 | 1.4 | 30 to 95 | 74 | 379 | 42 | 2500 | 1900 | 0.76 |  |  |  |  |  |  |  | 
2 | CNc1nc(Nc2ccc(C(=O)N3CCN(C[C@H]4CC[C@@H](CSC(C)(C)[C@H](NC(=O)C5(F)CC5)C(=O)N5C[C@H](O)CC5C(=O)NCc5ccc(-c6scnc6C)cc5)CC4)CC3)cc2OC)ncc1Cl (stereo partly shown) [XL01134] | 2200 | 2000 |  |  |  | 20 to 100 |  |  |  | 880 | 780 |  | 5 | 0.3 | 10 to 100 | 12 | 87 | 18 |  | 
3 | CNc1nc(Nc2ccc(C(=O)N3CCN(C[C@H]4CC[C@H](CSC(C)(C)[C@H](NC(=O)C5(F)CC5)C(=O)N5C[C@H](O)CC5C(=O)NCc5ccc(-c6scnc6C)cc5)CC4)CC3)cc2OC)ncc1Cl (stereo partly drawn) [XL01126, (2S,4R)-1-((R)-3-((((1R,4R)-4-((4-(4-((5-chloro-4-(methylamino)pyrimidin-2-yl)amino)-3-methoxybenzoyl)piperazin-1-yl)methyl)cyclohexyl)methyl)thio)-2-(1-fluorocyclopropane-1-carboxamido)-3-methylbutanoyl)-4-hydroxy-N-(4-(4-methylthiazol-5-yl)benzyl)pyrrolidine-2-carboxamide] | 1400 |  |  |  |  |  |  |  |  | 10100 |  |  | 9 | 0.3 |  | 15 |  | 18 | poor displacement | poor displacement
